Assay results reported in patent US20190209506A1, “METHODS OF REDUCING OR PREVENTING OXIDATION OF LDL OR LIPID MEMBRANES IN A SUBJECT IN NEED THEREOF” (Amarin Pharmaceuticals Ireland Limited, priority 2018, published 2019).

Legend:
HMG-CoA reductase = biological target: T1, HMG-CoA reductase (Homo sapiens, UniProt P04035); settings: metabolized by hepatic cytochrome P450; cited from earlier work
T1 sequence (P04035 1-888): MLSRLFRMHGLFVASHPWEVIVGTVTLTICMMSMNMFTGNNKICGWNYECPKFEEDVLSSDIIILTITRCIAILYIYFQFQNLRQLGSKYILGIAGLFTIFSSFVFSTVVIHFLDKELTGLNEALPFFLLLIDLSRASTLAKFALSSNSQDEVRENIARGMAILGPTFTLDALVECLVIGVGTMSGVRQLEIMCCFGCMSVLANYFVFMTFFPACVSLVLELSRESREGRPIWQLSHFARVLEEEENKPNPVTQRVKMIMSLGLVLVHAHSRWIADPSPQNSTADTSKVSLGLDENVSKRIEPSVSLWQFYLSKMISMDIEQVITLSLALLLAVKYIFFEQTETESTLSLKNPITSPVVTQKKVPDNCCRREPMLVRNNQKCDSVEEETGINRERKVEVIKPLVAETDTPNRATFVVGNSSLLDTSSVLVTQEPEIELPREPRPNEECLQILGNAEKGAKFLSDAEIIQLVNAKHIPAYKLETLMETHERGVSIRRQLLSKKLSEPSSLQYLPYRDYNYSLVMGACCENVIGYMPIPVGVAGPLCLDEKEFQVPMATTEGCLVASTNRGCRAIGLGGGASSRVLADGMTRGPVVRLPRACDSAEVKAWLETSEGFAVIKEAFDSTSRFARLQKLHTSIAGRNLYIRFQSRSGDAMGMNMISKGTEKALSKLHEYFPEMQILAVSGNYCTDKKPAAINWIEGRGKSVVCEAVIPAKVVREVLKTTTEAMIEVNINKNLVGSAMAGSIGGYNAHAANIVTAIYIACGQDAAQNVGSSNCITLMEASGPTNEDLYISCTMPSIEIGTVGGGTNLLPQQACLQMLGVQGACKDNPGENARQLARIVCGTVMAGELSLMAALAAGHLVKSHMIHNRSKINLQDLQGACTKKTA

human sdLDL = assay: Copper-induced sdLDL oxidation, TBARS (Example 7); assay type: biochemical
Protocol: An experiment to study the antioxidant effect of EPA in LDL and small dense LDL (“sdLDL”) was performed. LDL and sdLDL were isolated from the plasma of healthy volunteers by iodixanol density gradient ultracentrifugation, and adjusted to a final apolipoprotein concentration of 2 mg/mL. […] Lipid oxidation was initiated with 10 μM CuSO4 and monitored by the colorimetric detection of thiobarbituric acid reactive substances (TBARS) for 1 hr. Vitamin E was also incubated with sample aliquots as a positive control.

human LDL = assay: Copper-induced oxidation of unfractionated LDL, TBARS (Example 7); assay type: biochemical; settings: 1 hour
Protocol: An experiment to study the antioxidant effect of EPA in LDL and small dense LDL (“sdLDL”) was performed. LDL and sdLDL were isolated from the plasma of healthy volunteers by iodixanol density gradient ultracentrifugation, and adjusted to a final apolipoprotein concentration of 2 mg/mL. […] Vitamin E was also incubated with sample aliquots as a positive control.

[1] = Glucose-induced membrane lipid peroxidation (LOOH, CHOD-iodide assay) in DLPC/cholesterol vesicles (Examples 4, 5); assay type: biochemical; settings: 1.0 μM; glucose 200 mg/dL; 96 hours
Protocol: All test compounds were further diluted in ethanol or aqueous buffer as needed. Glucose was prepared in saline buffer (0.5 mM HEPES, 154 mM NaCl, pH 7.3) at 11.0 mM (200 mg/dL). CHOD-iodide color reagent (stock) was prepared, with slight modification, as described by from El-Saadani et al. (J. […] Samples were shell-dried under nitrogen gas and placed under vacuum for 1 h to remove residual solvent. […] Lipid suspensions were then vortexed for 3 min at ambient temperature to form MLVs. All MLV samples were subjected to time-dependent autoxidation by incubating at 37° C. in an uncovered, shaking water bath. This method allows lipid peroxidation to occur gradually without requiring the use of exogenous initiators. Small aliquots (5-100 μL) of each sample were removed, immediately following MLV preparation (0 hour) and after exposing samples to oxidative conditions for 72 or 96 hour, and combined with 1.0 mL of activated CHOD-iodide color reagent. Aliquot volume was reduced with each successive time point to ensure that spectrophotometric readings were within the optimal adsorption range. Test samples were covered and incubated in darkness at room temperature for at least 4 hr. Sample absorbances were then measured against a CHOD blank at 365 nm using a Beckman DU-640 spectrophotometer. The CHOD colorimetric assay is based on the oxidation of iodide (I^−) by lipid hydroperoxide (LOOH) to form triiodide the quantity of which is directly proportional to the amount of LOOH present in the lipid sample. The molar absorptivity (ε) of I3^− is 2.46×10^4 M^−1 cm^−1 at 365 nm. […] All MLV samples were subjected to time-dependent autoxidation by incubating at 37° C. in an uncovered, shaking water bath. This method allows lipid peroxidation to occur gradually without requiring the use of exogenous initiators. Small aliquots (5-100 μL) of each sample were removed, immediately following MLV preparation (0 hr) and after exposing samples to oxidative conditions for 72 or 96 hr, and combined with 1.0 mL of activated CHOD-iodide color reagent. Aliquot volume was reduced with each successive time point to ensure that spectrophotometric readings were within the optimal adsorption range. Test samples were covered and incubated in darkness at room temperature for at least 4 hr. Sample absorbances were then measured against a CHOD blank at 365 nm using a Beckman DU-640 spectrophotometer. […] The molar absorptivity (ε) of I3^− is 2.46×10^4 M^−1 cm^−1 at 365 nm.

[2] = tested on: rat renal glomerular endothelial cells; assay: NO and ONOO^− release ex vivo from glomerular endothelial cells exposed to oxLDL and high glucose (Example 13); assay type: cell-based; settings: 10.0 μM, 1 hr; oxLDL 11 mg/dL and glucose 300 mg/dL; vs vehicle
Protocol: Healthy male Wistar Kyoto (WKY) rats, aged 7-9 weeks and weighing 250±20 g, were obtained from inbred colonies (National Institutes of Health, Bethesda, Md.). Animals were housed in a controlled environment that provided food and water ad libitum prior to the study. […] Animals were sacrificed and tissue samples obtained immediately for experimentation. All procedures were conducted in accordance with standard Institutional Animal Care and Use Committee guidelines and conformed to the Guide for the Care and Use of Laboratory Animals published by the US National Institutes of Health.
Immediately after sacrificing the rats, kidneys were removed, cut into 100 μm sections and transferred to a separate organ chamber containing Dulbecco's phosphate buffered saline ([…]) and […] at pH 7.4. […]
The NO/ONOO− nanosensor was positioned near the surface of the endothelial cells using a computer-controlled M3301 micromanipulator (x-y-z resolution of 0.2 μm) and microscope (both from World Precision Instruments, Berlin, Germany) fitted with a CD camera. Each analyte was measured from amperograms and standard calibration curves collected under maximum current. […] Changes in current (proportional to the molar concentrations of NO or ONOO^− released) were monitored continuously immediately following CaI stimulation.

| Structure (SMILES) | share of circulating HMG-CoA reductase inhibitory activity accounted for by active metabolites (HMG-CoA reductase) | effect on sdLDL oxidation compared to vehicle-treated controls (human sdLDL; 10 μM, 1 hour) | inhibition of TBARS formation / sdLDL oxidation (human sdLDL; 10 μM, 1 hr, vs vehicle) [%] | effect on unfractionated LDL oxidation (human LDL; 10 μM) | antioxidant effect (LOOH formation) [1] | increase of NO release [2] [%] | reduction of ONOO^− release [2] [%] | inhibition of sdLDL oxidation (human sdLDL; 0.5 μM, 1 hr) [%] | inhibition of sdLDL oxidation (human sdLDL; 1.0 μM, 1 hr, vs vehicle) [%] | inhibition of sdLDL oxidation (human sdLDL; highest dose, 1 hr) [%] | effect on unfractionated LDL oxidation, dose dependence (human LDL) |
| --- | --- | --- | --- | --- | --- | --- | --- | --- | --- | --- | --- |
| CC(C)c1c(C(=O)Nc2ccccc2)c(-c2ccccc2)c(-c2ccc(F)cc2)n1CC[C@@H](O)C[C@@H](O)CC(=O)O [atorvastatin] | approximately 70% | did not have any significant antioxidant activity | 0.1±7 | did not have any significant antioxidant activity | – | – | – | – | – | – | – |
| CC(C)c1c(C(=O)Nc2ccccc2O)c(-c2ccccc2)c(-c2ccc(F)cc2)n1CC[C@@H](O)C[C@@H](O)CC(=O)O [ATM, Atorvastatin ortho- (o-) hydroxy (active) metabolite] | – | – | – | – | separate and potent antioxidant effects | 205 | 25 | 5±5 | 18±5 | 90±2 | significant and dose-dependent inhibition of unfractionated LDL oxidation beginning at 1.0 μM |
